{"source": "patent US11485742B2", "about": "“2-azaspiro[3.4]octane derivatives as M4 agonists” (NOVARTIS AG, priority 2019, dated 2022)", "origin": "cited, not measured here", "system": "hyperactivity in mice induced by the stimulant d-amphetamine", "details": "general statement on clinically efficacious muscarinic anti-psychotics; cited from earlier work"}
{"smiles": "CCCCCCOc1nsnc1C1=CCCN(C)C1", "note": "[xanomeline]", "values": [{"measurement": "activity in the amphetamine induced hyperlocomotion assay", "value": "active"}]}
